For 16 compounds, IC50 results are on record in patent US9085576B2 (AMGEN INC., priority 2013, dated 2015).

In assay [1] the target is Beta Secretase enzyme (BACE) (Homo sapiens (Human), UniProt P56817). In words: In vitro enzymatic BACE FRET assay. It counts as biochemical. The note with it: read-out: BACE1 Enzyme assay IC50.
Another assay concerns the target Cathepsin D (Cat D) (Homo sapiens (Human), UniProt P07339). In words: In vitro enzymatic Cathepsin D (Cat D) FRET assay. It counts as biochemical. As to conditions: read-out: CatD IC50.

Cathepsin D (Cat D), sequence (P07339 65-412, species assumed): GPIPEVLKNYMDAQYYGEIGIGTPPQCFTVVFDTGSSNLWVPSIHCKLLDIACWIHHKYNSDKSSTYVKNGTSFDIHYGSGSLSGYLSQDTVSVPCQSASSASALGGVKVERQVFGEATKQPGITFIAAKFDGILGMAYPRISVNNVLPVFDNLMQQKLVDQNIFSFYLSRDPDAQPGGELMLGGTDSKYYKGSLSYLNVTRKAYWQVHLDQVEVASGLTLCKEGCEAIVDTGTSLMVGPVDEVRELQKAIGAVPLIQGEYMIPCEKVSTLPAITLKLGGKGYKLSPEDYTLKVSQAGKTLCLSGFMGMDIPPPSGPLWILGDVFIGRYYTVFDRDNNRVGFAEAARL
Beta Secretase enzyme (BACE), sequence (P56817 46-501): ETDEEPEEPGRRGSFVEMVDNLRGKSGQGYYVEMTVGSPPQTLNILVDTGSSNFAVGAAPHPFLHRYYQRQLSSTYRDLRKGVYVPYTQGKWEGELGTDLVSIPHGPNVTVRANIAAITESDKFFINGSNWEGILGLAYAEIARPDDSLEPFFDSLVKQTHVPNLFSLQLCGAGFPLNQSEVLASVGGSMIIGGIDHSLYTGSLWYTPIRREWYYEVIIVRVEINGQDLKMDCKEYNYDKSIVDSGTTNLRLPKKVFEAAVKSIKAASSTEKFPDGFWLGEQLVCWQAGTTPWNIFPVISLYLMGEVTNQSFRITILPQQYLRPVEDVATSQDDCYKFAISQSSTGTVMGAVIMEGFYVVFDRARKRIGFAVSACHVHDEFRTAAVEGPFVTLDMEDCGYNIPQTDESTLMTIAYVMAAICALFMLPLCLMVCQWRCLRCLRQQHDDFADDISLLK

What is called IC50 is the concentration that inhibits the measured activity by half. Turning to `NC1=N[C@@](c2cc(N[C@H]3CCCc4cc(Br)cnc43)ccc2F)(C(F)F)[C@H]2C[C@H]2O1` (mixture of isomers) [Example 382, (1R,5S,6R)-5-(5-(((R)-3-bromo-5,6,7,8-tetrahydroquinolin-8-yl)amino)-2-fluorophenyl)-5-(difluoromethyl)-2-oxa-4-azabicyclo[4.1.0]hept-3-en-3-amine and (1R,5S,6R)-5-(5-(((S)-3-bromo-5,6,7,8-tetrahydroquinolin-8-yl)amino)-2-fluorophenyl)-5-(difluoromethyl)-2-oxa-4-azabicyclo[4.1.0]hept-3-en-3-amine], the figures for the 50% inhibitory concentration (IC50) (in assay [1]; on Cathepsin D (Cat D)) were 3.07 µM and 263 µM, respectively. On to `NC1=N[C@@](c2cc(N[C@@H]3CCc4cc(Br)ccc43)ccc2F)(C(F)F)[C@H]2C[C@H]2O1.NC1=N[C@@](c2cc(N[C@H]3CCc4cc(Br)ccc43)ccc2F)(C(F)F)[C@H]2C[C@H]2O1` (mixture of isomers) [Example 384, (1R,5S,6R)-5-(5-(((R)-5-bromo-2,3-dihydro-1H-inden-1-yl)amino)-2-fluorophenyl)-5-(difluoromethyl)-2-oxa-4-azabicyclo[4.1.0]hept-3-en-3-amine and (1R,5S,6R)-5-(5-(((S)-5-bromo-2,3-dihydro-1H-inden-1-yl)amino)-2-fluorophenyl)-5-(difluoromethyl)-2-oxa-4-azabicyclo[4.1.0]hept-3-en-3-amine], for which the IC50 amounted to 0.315 µM in assay [1] and 82.5 µM at Cathepsin D (Cat D).

For `NC1=N[C@@](c2cc(N[C@H](c3ccc(Cl)cn3)C(F)(F)F)ccc2F)(C(F)F)[C@H]2C[C@H]2O1` (mixture of isomers) [Example 422, (1R,5S,6R)-5-(5-(((R)-1-(5-chloropyridin-2-yl)-2,2,2-trifluoroethyl)amino)-2-fluorophenyl)-5-(difluoromethyl)-2-oxa-4-azabicyclo[4.1.0]hept-3-en-3-amine and (1R,5S,6R)-5-(5-(((S)-1-(5-chloropyridin-2-yl)-2,2,2-trifluoroethyl)amino-2-fluorophenyl)-5-(difluoromethyl)-2-oxa-4-azabicyclo[4.1.0]hept-3-en-3-amine], the IC50 in assay [1] is 5.25 µM; at Cathepsin D (Cat D), 68.2 µM.

As for `Cc1cc(C#N)cnc1C(=O)Nc1cc(F)c(Cl)c([C@]2(CF)N=C(N)O[C@H]3C[C@H]32)c1` (racemic) [Example 137, N-(3-((1R/S,5S/R,6R/S)-3-amino-5-(fluoromethyl)-2-oxa-4-azabicyclo[4.1.0]hept-3-en-5-yl)-4-chloro-5-fluorophenyl)-5-cyano-3-methylpicolinamide], the IC50 in assay [1] stood at 0.0448 µM; at Cathepsin D (Cat D), 539 µM.

For the compound `CC#CCOc1cnc(C(=O)Nc2ccc(Cl)c([C@]3(C(F)F)N=C(N)O[C@H]4C[C@H]43)c2)cn1` (racemic) [Example 210, N-(3-([1(R,S),5(S,R),6(R,S)]-3-amino-5-(difluoromethyl)-2-oxa-4-azabicyclo[4.1.0]hept-3-en-5-yl)-4-chlorophenyl)-5-(but-2-yn-1-yloxy)pyrazine-2-carboxamide], the IC50 in assay [1] is 0.0039 µM; at Cathepsin D (Cat D), 569 µM.

For `C#CCOc1cnc(C(=O)Nc2ccc(Cl)c([C@]3(C(F)F)N=C(N)O[C@H]4C[C@H]43)c2)cn1` (racemic) [Example 219, N-(3-((1(S,R),5(R,S),6(S,R))-3-amino-5-(difluoromethyl)-2-oxa-4-azabicyclo[4.1.0]hept-3-en-5-yl)-4-chlorophenyl)-5-(prop-2-yn-1-yloxy)pyrazine-2-carboxamide], the values for the IC50 (in assay [1]; at Cathepsin D (Cat D)) were 0.0063 µM and 65.8 µM, respectively. As to `NC1=N[C@@](c2cc(NC(=O)c3coc(CF)n3)ccc2F)(C(F)F)[C@H]2C[C@H]2O1` [Example 168, N-(3-((1R,5S,6R)-3-amino-5-(difluoromethyl)-2-oxa-4-azabicyclo[4.1.0]hept-3-en-5-yl)-4-fluorophenyl)-2-(fluoromethyl)oxazole-4-carboxamide], the half-inhibitory concentration (IC50) at Cathepsin D (Cat D) came to 56.8 µM. `C#CCOc1ccc(C(=O)Nc2ccc(F)c([C@@]3(CF)N=C(N)O[C@@H]4C[C@@H]43)c2)nc1` [Example 205, N-(3-((1R,5S,6R)-3-amino-5-(fluoromethyl)-2-oxa-4-azabicyclo[4.1.0]hept-3-en-5-yl)-4-fluorophenyl)-5-(prop-2-yn-1-yloxy)picolinamide]: the IC50 at Cathepsin D (Cat D) is 821 µM. `Cc1ccc(NC(=O)c2ccc(C#N)cn2)cc1[C@@]1(C(F)F)N=C(N)O[C@@H]2C[C@@H]21` [Example 269, N-(3-((1R,5S,6R)-3-amino-5-(difluoromethyl)-2-oxa-4-azabicyclo[4.1.0]hept-3-en-5-yl)-4-methylphenyl)-5-cyanopicolinamide]: the IC50 at Cathepsin D (Cat D) stood at 716 µM.

For the compound `Cc1cc(NC(=O)c2ncc(C#N)cn2)cc([C@@]2(C(F)F)N=C(N)O[C@@H]3C[C@@H]32)c1F` [Example 298, N-(3-((1R,5S,6R)-3-amino-5-(difluoromethyl)-2-oxa-4-azabicyclo[4.1.0]hept-3-en-5-yl)-4-fluoro-5-methylphenyl)-5-cyanopyrimidine-2-carboxamide], on Cathepsin D (Cat D), the IC50 is over 400 µM. Turning to `C#Cc1ccc(C(=O)Nc2ccc(F)c([C@@]3(C(F)F)N=C(N)O[C@@H]4C[C@@H]43)c2)nc1` [Example 313, N-(3-((1R,5S,6R)-3-amino-5-(difluoromethyl)-2-oxa-4-azabicyclo[4.1.0]hept-3-en-5-yl)-4-fluorophenyl)-5-ethynylpicolinamide], on Cathepsin D (Cat D), the IC50 was 467 µM. With `NC1=N[C@@](c2cc(NC3(c4ccc(Cl)cn4)COC3)ccc2F)(C(F)F)[C@H]2C[C@H]2O1` [Example 332, (1R,5S,6R)-5-(5-((3-(5-chloropyridin-2-yl)oxetan-3-yl)amino)-2-fluorophenyl)-5-(difluoromethyl)-2-oxa-4-azabicyclo[4.1.0]hept-3-en-3-amine], the IC50 on Cathepsin D (Cat D) worked out at 163 µM.

Take `NC1=N[C@@](c2cc(Nc3ncc(F)c4cc(Cl)cnc34)ccc2F)(C(F)F)[C@H]2C[C@H]2O1` [Example 361, (1R,5S,6R)-5-(5-((3-chloro-5-fluoro-1,7-naphthyridin-8-yl)amino)-2-fluorophenyl)-5-(difluoromethyl)-2-oxa-4-azabicyclo[4.1.0]hept-3-en-3-amine]: at Cathepsin D (Cat D), the IC50 was over 400 µM.

In the case of `N=C1N[C@](CF)(c2cc(-c3cncc(F)c3)c(CO)cc2F)[C@H]2CC2O1` (stereo partly drawn) [Example 433, (5-fluoro-4-([(1R,S),(5S,R),(6R,S)]-5-(fluoromethyl)-3-imino-2-oxa-4-azabicyclo[4.1.0]heptan-5-yl)-2-(5-fluoropyridin-3-yl)phenyl)methanol], the IC50 in assay [1] is 23.1 µM. As to `COC(=O)c1ccc(C(=O)Nc2cc(F)c(F)c([C@]3(C(F)F)N=C(N)O[C@H]4C[C@H]43)c2)nc1` [Example 436, methyl 6-((3-((1S,5R,6S)-3-amino-5-(difluoromethyl)-2-oxa-4-azabicyclo[4.1.0]hept-3-en-5-yl)-4,5-difluorophenyl)carbamoyl)nicotinate], the IC50 at Cathepsin D (Cat D) turned out to be 343 µM. As to “(R)-4-((3-((1R,5S,6R)-3-amino-5-(difluoromethyl)-2-oxa-4-azabicyclo[4.1.0]hept-3-en-5-yl)-4-fluorophenyl)amino)chroman-7-carbonitrile and (S)-4-((3-((1R,5S,6R)-3-amino-5-(difluoromethyl)-2-oxa-4-azabicyclo[4.1.0]hept-3-en-5-yl)-4-fluorophenyl)amino)chroman-7-carbonitrile [Example 383]”, the IC50 in assay [1] was found to be 0.968 µM.
